From US20250388565A1, “ESTROGEN RECEPTOR ALPHA DEGRADERS AND METHODS OF USE THEREOF” (Relay Therapeutics, Inc., priority 2022, published 2025)

molecular target: T1, ERα protein (HiBiT-tagged) in ESR1_HiBiT KI MCF7 cells (Homo sapiens, UniProt P03372); assay: Nano Glo HiBiT Lytic Degradation Assay; assay type: cell-based; settings: 6 hours with compound, 14-point dose response 1:3, bell-shape curve fit, half-maximal effect of first Hill model, read-out: MCF7 ESR1 HiBiT - (DC50)
T1 sequence (P03372 1-595): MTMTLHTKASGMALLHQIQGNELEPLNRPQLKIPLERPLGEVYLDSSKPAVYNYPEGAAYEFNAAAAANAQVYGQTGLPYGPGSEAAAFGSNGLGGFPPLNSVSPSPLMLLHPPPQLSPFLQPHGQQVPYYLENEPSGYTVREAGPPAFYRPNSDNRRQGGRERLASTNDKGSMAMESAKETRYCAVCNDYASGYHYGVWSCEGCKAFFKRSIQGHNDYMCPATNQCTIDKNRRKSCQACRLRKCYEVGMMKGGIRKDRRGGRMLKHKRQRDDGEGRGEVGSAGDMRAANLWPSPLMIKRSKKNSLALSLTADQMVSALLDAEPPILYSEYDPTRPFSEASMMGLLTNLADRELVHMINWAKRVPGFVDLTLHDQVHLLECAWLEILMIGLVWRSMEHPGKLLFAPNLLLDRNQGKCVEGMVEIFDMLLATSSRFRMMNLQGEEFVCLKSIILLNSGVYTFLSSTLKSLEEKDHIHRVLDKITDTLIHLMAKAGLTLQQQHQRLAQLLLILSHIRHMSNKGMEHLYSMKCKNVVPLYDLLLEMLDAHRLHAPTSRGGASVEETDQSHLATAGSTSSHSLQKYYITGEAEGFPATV
Procedure, shortened: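 ESR1_HiBiT knock-in MCF7 cells were seeded 24 h before treatment, then exposed to compounds for 6 h at 37° C (14-point 1:3 curves, 10 mM top stock, 0.1% DMSO final, duplicates). HiBiT-ERα was read by lytic LgBiT luminescence, background-subtracted and normalized to DMSO. DC50 was taken from the half-maximal point of the first Hill component of a bell-shaped fit.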

Row | Structure (SMILES) | DC50 [nM]
1 | O=C1CC[C@H](N2Cc3cc(N4CCN(CC5CCN(c6ccc([C@@H]7c8ccc(O)cc8CO[C@@]78CCCc7ccccc78)cc6)CC5)CC4)ccc3C2=O)C(=O)N1 [Compound I-76, (S)-3-(5-(4-((1-(4-((3S,4R)-7-hydroxy-3′,4′-dihydro-2′H-spiro[isochromane-3,1′-naphthalen]-4-yl)phenyl)piperidin-4-yl)methyl)piperazin-1-yl)-1-oxoisoindolin-2-yl)piperidine-2,6-dione] | 0.21
2 | C[C@@H]1OC2(CCCCC2)[C@H](c2ccc(N3CCC(CN4CCN(c5ccc6c(c5)CN([C@H]5CCC(=O)NC5=O)C6=O)CC4)CC3)cc2)c2ccc(O)cc21 [Compound I-83, (S)-3-(5-(4-((1-(4-((1′S,4′R)-7′-hydroxy-1′-methylspiro[cyclohexane-1,3′-isochroman]-4′-yl)phenyl)piperidin-4-yl)methyl)piperazin-1-yl)-1-oxoisoindolin-2-yl)piperidine-2,6-dione] | 1
3 | O=C1CC[C@H](N2Cc3cc(N4CCN(CC5CCN(c6ccc([C@H]7c8ccc(O)cc8CC[C@H]7c7ccccn7)cc6)CC5)CC4)ccc3C2=O)C(=O)N1 [Compound I-114, (3S)-3-[5-[4-[[1-[4-[(1S,2R)-6-hydroxy-2-(2-pyridyl)tetralin-1-yl]phenyl]-4-piperidyl]methyl]piperazin-1-yl]-1-oxo-isoindolin-2-yl]piperidine-2,6-dione] | ≥ 10000
4 | CC1(C)CC([C@H]2CCc3cc(O)ccc3[C@H]2c2ccc(N3CCC(CN4CCN(c5ccc6c(c5)CN([C@H]5CCC(=O)NC5=O)C6=O)CC4)CC3)cc2)CC(C)(C)C1 [Compound I-116, (3.5)-3-[5-[4-[[1-[4-[(1S,2S)-6-hydroxy-2-(3,3,5,5-tetramethylcyclohexyl)tetralin-1-yl]phenyl]-4-piperidyl]methyl]piperazin-1-yl]-1-oxo-isoindolin-2-yl]piperidine-2,6-dione] | ≥ 10000
5 | CC1(C)CC([C@@H]2CCc3cc(O)ccc3[C@@H]2c2ccc(N3CCC(CN4CCN(c5ccc6c(c5)CN([C@H]5CCC(=O)NC5=O)C6=O)CC4)CC3)cc2)CC(C)(C)C1 [Compound I-117, (35)-3-[5-[4-[[1-[4-[(1R,2R)-6-hydroxy-2-(3,3,5,5-tetramethylcyclohexyl)tetralin-1-yl]phenyl]-4-piperidyl]methyl]piperazin-1-yl]-1-oxo-isoindolin-2-yl]piperidine-2,6-dione] | ≥ 10000
6 | O=C1CC[C@H](N2Cc3cc(N4CCN(CC5CCN(c6cc(F)c([C@H]7c8ccc(O)cc8CC[C@H]7C7CCCCC7)c(F)c6)CC5)CC4)ccc3C2=O)C(=O)N1 [Compound I-118, (S)-3-(5-(4-((1-(4-((1R,2S)-2-cyclohexyl-6-hydroxy-1,2,3,4-tetrahydronaphthalen-1-yl)-3,5-difluorophenyl)piperidin-4-yl)methyl)piperazin-1-yl)-1-oxoisoindolin-2-yl)piperidine-2,6-dione] | 600
7 | O=C1CC[C@H](N2Cc3cc(N4CCN(CC5CCN(c6ccc([C@H]7c8ccc(O)cc8COC78CCCCC8)cc6)CC5)CC4)ccc3C2=O)C(=O)N1 [Compound I-122, (S)-3-(5-(4-((1-(4-((S)-7′-hydroxyspiro[cyclohexane-1,3′-isochroman]-4′-yl)phenyl)piperidin-4-yl)methyl)piperazin-1-yl)-1-oxoisoindolin-2-yl)piperidine-2,6-dione] | ≥ 10000
8 | O=C1CC[C@H](N2Cc3cc(N4CCN(CC5CCN(c6ccc([C@@H]7c8ccc(O)cc8COC78CCCCC8)cc6)CC5)CC4)ccc3C2=O)C(=O)N1 [Compound I-123, (S)-3-(5-(4-((1-(4-((R)-7′-hydroxyspiro[cyclohexane-1,3′-isochroman]-4′-yl)phenyl)piperidin-4-yl)methyl)piperazin-1-yl)-1-oxoisoindolin-2-yl)piperidine-2,6-dione] | 0.31
9 | C[C@H]1CCc2cc(O)ccc2[C@H]1c1ccc(N2CCC(CN3CCN(c4ccc5c(c4)CN([C@H]4CCC(=O)NC4=O)C5=O)CC3)CC2)cc1 [Compound I-124, (S)-3-(5-(4-((1-(4-((1R,2S)-6-hydroxy-2-methyl-1,2,3,4-tetrahydronaphthalen-1-yl)phenyl)piperidin-4-yl)methyl)piperazin-1-yl)-1-oxoisoindolin-2-yl)piperidine-2,6-dione] | 1

Now from value to compound:

Row | DC50 [nM] | Structure (SMILES)
10 | 0.2 | O=C1CC[C@H](N2Cc3cc(N4CCN(CC5CCN(c6ccc([C@@H]7c8ccc(O)cc8CO[C@@]78CCc7ccccc78)cc6)CC5)CC4)ccc3C2=O)C(=O)N1 [Compound I-77, (S)-3-(5-(4-((1-(4-((1S,4′R)-7′-hydroxy-2,3-dihydrospiro[indene-1,3′-isochroman]-4′-yl)phenyl)piperidin-4-yl)methyl)piperazin-1-yl)-1-oxoisoindolin-2-yl)piperidine-2,6-dione]
11 | 0.64 | O=C1CC[C@H](N2Cc3cc(N4CCN(CC5CCN(c6ccc([C@@H]7c8ccc(O)cc8CCC78CCCCC8)cc6)CC5)CC4)ccc3C2=O)C(=O)N1 [Compound I-85, (S)-3-(5-(4-((1-(4-((R)-6′-hydroxy-3′,4′-dihydro-1′H-spiro[cyclohexane-1,2′-naphthalen]-1′-yl)phenyl)piperidin-4-yl)methyl)piperazin-1-yl)-1-oxoisoindolin-2-yl)piperidine-2,6-dione]
12 | ≥ 10000 | O=C1CC[C@H](N2Cc3cc(N4CCN(CC5CCN(c6ccc([C@H]7c8ccc(O)cc8C(F)(F)C[C@H]7C7CCCCC7)cc6)CC5)CC4)ccc3C2=O)C(=O)N1 [Compound I-98, (S)-3-(5-(4-((1-(4-((1S,2S)-2-cyclohexyl-4,4-difluoro-6-hydroxy-1,2,3,4-tetrahydronaphthalen-1-yl)phenyl)piperidin-4-yl)methyl)piperazin-1-yl)-1-oxoisoindolin-2-yl)piperidine-2,6-dione]
13 | 0.67 | O=C1CC[C@H](N2Cc3cc(N4CCN(CC5CCN(c6ccc([C@@H]7c8ccc(O)cc8C(F)(F)C[C@@H]7C7CCCCC7)cc6)CC5)CC4)ccc3C2=O)C(=O)N1 [Compound I-99, (S)-3-(5-(4-((1-(4-((1R,2R)-2-cyclohexyl-4,4-difluoro-6-hydroxy-1,2,3,4-tetrahydronaphthalen-1-yl)phenyl)piperidin-4-yl)methyl)piperazin-1-yl)-1-oxoisoindolin-2-yl)piperidine-2,6-dione]
14 | 0.63 | O=C1CC[C@H](N2Cc3cc(N4CCN(CC5CCN(c6ccc([C@@H]7c8ccc(O)cc8CC[C@@H]7c7ccccn7)cc6)CC5)CC4)ccc3C2=O)C(=O)N1 [Compound I-115]
15 | 6 | O=C1CC[C@H](N2Cc3cc(N4CCN(CC5CCN(c6cc(F)c([C@@H]7c8ccc(O)cc8CC[C@@H]7C7CCCCC7)c(F)c6)CC5)CC4)ccc3C2=O)C(=O)N1 [Compound I-119, (S)-3-(5-(4-((1-(4-((1S,2R)-2-cyclohexyl-6-hydroxy-1,2,3,4-tetrahydronaphthalen-1-yl)-3,5-difluorophenyl)piperidin-4-yl)methyl)piperazin-1-yl)-1-oxoisoindolin-2-yl)piperidine-2,6-dione]
16 | ≥ 10000 | O=C1CC[C@H](N2Cc3cc(N4CCN(CC5CCN(c6ccc([C@H]7c8ccc(O)cc8CC[C@H]7CC7CCCC7)cc6)CC5)CC4)ccc3C2=O)C(=O)N1 [Compound I-120, (S)-3-(5-(4-((1-(4-((1S,2S)-2-(cyclopentylmethyl)-6-hydroxy-1,2,3,4-tetrahydronaphthalen-1-yl)phenyl)piperidin-4-yl)methyl)piperazin-1-yl)-1-oxoisoindolin-2-yl)piperidine-2,6-dione]
17 | 3 | O=C1CC[C@H](N2Cc3cc(N4CCN(CC5CCN(c6ccc([C@@H]7c8ccc(O)cc8CC[C@@H]7CC7CCCC7)cc6)CC5)CC4)ccc3C2=O)C(=O)N1 [Compound I-121, (S)-3-(5-(4-((1-(4-((1R,2R)-2-(cyclopentylmethyl)-6-hydroxy-1,2,3,4-tetrahydronaphthalen-1-yl)phenyl)piperidin-4-yl)methyl)piperazin-1-yl)-1-oxoisoindolin-2-yl)piperidine-2,6-dione]
18 | 3300 | C[C@@H]1CCc2cc(O)ccc2[C@@H]1c1ccc(N2CCC(CN3CCN(c4ccc5c(c4)CN([C@H]4CCC(=O)NC4=O)C5=O)CC3)CC2)cc1 [Compound I-125, (S)-3-(5-(4-((1-(4-((1S,2R)-6-hydroxy-2-methyl-1,2,3,4-tetrahydronaphthalen-1-yl)phenyl)piperidin-4-yl)methyl)piperazin-1-yl)-1-oxoisoindolin-2-yl)piperidine-2,6-dione]
19 | 0.07 | O=C1CC[C@H](N2Cc3cc(N4CCN(CC5CCN(c6ccc([C@@H]7c8ccc(O)cc8CC[C@@H]7c7cccc(O)c7)cc6)CC5)CC4)ccc3C2=O)C(=O)N1 [Compound I-126, (3S)-3-[5-[4-[[1-[4-[(1R,2S)-6-hydroxy-2-(3-hydroxyphenyl)tetralin-1-yl]phenyl]-4-piperidyl]methyl]piperazin-1-yl]-1-oxo-isoindolin-2-yl]piperidine-2,6-dione]
